Data taken from ChEMBL document CHEMBL2073940, “Vinblastine and sulfinpyrazone export by the multidrug resistance protein MRP2 is associated with glutathione export” (Br J Cancer, 2000).
Each block holds one compound with its values, some of them ahead of it.

Tests used:
Assay type in all cases: functional, cell-based
Conditions in all cases: dog, mdck-ii
[1] = molecular target: T1, Multidrug resistance-associated protein 1 (Homo sapiens, UniProt P33527); experiment: TP_TRANSPORTER: inhibition of Glutathione efflux (Benzbromarone: 25 uM) in MRP1-expressing MDCKII cells
T1 sequence (P33527 whole entry): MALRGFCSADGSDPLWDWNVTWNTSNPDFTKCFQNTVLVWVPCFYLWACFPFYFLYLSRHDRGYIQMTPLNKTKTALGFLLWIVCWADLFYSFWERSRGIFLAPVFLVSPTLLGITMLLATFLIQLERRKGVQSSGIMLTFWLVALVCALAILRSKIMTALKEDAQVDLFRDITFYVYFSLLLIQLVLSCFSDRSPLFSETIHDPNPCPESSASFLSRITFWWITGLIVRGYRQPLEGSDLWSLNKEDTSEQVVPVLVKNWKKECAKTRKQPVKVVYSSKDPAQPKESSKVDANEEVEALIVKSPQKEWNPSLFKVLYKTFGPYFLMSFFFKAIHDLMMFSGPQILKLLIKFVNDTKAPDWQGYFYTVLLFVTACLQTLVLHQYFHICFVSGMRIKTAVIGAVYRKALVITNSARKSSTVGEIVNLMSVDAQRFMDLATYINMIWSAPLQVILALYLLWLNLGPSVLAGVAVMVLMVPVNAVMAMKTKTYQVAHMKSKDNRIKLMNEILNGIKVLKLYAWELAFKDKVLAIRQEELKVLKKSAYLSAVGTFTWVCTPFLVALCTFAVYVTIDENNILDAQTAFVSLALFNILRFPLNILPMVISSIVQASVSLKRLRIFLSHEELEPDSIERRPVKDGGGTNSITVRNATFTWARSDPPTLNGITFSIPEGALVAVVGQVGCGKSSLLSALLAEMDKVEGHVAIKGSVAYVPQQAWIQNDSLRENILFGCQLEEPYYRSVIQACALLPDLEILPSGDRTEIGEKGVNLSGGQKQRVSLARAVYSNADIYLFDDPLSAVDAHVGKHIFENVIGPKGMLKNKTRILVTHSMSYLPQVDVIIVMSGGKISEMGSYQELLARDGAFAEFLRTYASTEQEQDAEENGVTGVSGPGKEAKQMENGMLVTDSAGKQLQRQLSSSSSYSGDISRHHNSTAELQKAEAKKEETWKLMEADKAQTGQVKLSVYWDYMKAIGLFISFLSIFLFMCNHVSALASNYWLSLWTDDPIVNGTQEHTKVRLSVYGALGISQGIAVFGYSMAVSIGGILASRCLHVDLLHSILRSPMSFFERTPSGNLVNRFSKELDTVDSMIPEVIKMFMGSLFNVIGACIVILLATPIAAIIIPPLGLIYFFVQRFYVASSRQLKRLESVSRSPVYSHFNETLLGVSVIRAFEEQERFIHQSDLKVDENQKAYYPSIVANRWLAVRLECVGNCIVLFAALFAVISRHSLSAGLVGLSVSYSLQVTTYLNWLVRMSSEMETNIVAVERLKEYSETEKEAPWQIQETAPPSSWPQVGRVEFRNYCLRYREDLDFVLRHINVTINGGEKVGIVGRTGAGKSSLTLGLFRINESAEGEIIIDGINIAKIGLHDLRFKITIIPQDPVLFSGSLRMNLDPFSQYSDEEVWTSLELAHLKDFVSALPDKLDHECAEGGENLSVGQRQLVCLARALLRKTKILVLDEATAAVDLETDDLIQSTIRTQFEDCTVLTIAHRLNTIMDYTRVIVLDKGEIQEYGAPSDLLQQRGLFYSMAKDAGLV

[2] = molecular target: T1, Multidrug resistance-associated protein 1; experiment: TP_TRANSPORTER: inhibition of Glutathione efflux (Indomethacin: 400 uM) in MRP1-expressing MDCKII cells
[3] = molecular target: T1, Multidrug resistance-associated protein 1; experiment: TP_TRANSPORTER: inhibition of Glutathione efflux (Sulfinpyrazone: 3200. uM) in MRP1-expressing MDCKII cells
[4] = molecular target: ATP-binding cassette sub-family C member 2 (Homo sapiens, UniProt Q92887); experiment: TP_TRANSPORTER: transepithelial transport (basal to apical) in MRP2-expressing MDCKII cells
Chain of ATP-binding cassette sub-family C member 2 (Q92887 whole entry): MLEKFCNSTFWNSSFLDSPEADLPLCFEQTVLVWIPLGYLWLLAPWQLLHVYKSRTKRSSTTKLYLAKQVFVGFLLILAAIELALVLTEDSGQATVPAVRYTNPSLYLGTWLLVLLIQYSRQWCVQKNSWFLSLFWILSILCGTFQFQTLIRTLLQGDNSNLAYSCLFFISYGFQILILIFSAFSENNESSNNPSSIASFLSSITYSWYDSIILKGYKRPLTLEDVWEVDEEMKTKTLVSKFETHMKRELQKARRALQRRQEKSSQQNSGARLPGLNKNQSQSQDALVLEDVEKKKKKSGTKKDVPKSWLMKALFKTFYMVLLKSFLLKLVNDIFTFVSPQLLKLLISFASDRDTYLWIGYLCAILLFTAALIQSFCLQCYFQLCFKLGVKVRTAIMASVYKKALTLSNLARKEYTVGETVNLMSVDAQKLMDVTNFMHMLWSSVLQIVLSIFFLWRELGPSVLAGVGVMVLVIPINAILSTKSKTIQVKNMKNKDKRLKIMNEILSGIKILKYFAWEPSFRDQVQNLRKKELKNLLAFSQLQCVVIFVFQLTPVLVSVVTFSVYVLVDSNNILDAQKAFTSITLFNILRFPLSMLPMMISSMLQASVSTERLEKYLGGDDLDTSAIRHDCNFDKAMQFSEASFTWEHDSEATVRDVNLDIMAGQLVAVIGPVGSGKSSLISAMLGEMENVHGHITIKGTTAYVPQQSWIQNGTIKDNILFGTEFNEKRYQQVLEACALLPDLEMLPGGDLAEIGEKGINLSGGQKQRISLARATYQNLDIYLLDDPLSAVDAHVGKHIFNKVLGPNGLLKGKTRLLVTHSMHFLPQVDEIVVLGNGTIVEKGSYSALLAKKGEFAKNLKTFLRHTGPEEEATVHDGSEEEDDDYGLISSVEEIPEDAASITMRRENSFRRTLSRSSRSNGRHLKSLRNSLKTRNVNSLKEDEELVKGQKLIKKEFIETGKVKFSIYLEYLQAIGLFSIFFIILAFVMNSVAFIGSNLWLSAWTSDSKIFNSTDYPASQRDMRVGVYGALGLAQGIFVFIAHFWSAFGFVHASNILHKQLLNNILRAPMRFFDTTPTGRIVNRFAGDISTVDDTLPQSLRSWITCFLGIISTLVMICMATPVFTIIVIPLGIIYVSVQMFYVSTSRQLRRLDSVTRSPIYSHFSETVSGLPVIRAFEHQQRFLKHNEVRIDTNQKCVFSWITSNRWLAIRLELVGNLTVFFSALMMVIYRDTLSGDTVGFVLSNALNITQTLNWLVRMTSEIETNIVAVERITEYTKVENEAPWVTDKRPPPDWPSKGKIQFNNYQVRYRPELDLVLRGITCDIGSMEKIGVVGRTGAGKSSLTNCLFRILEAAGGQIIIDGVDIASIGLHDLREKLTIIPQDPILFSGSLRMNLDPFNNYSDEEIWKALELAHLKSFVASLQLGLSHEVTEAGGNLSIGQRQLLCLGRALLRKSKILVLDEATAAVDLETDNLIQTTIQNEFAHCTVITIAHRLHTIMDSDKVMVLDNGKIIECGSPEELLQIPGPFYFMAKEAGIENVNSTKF

- Activity [1]: inhibitor [+]
Compound: CCc1oc2ccccc2c1C(=O)c1cc(Br)c(O)c(Br)c1 [BENZBROMARONE]

- Activity [2]: inhibitor [+]
Compound: COc1ccc2c(c1)c(CC(=O)O)c(C)n2C(=O)c1ccc(Cl)cc1 [INDOMETHACIN]

- Activity [3]: inhibitor [+]
- Activity [4]: substrate [+]
Compound: O=C1C(CC[S+]([O-])c2ccccc2)C(=O)N(c2ccccc2)N1c1ccccc1 (centres undefined) [SULFINPYRAZONE]
